Assays:
H4 histamine GPCR = molecular target: T1, H4 histamine GPCR (Homo sapiens, UniProt Q9H3N8); test: Radioligand binding assay, H4 receptor (transfected HEK-293 cells); conditions: antagonist 1 μM
T1 construct: host or cells: HEK-293 cells
Protocol: (§1) Binding assays were conducted to evaluate the affinity of test compounds IEM-1460 and IEM-1925 (Eurofins Scientific, Inc.) for 15 targets: the human alpha-1 adrenergic (A1) receptor, histaminergic (H)-2 and−3 receptors, and muscarinic acetylcholine receptors-1 to−5 in transfected CHO cells by radioligand binding. The neuronal α4β2 and neuronal α7 cholinergic acetylcholine receptors were tested in transfected SH-SY5Y cells. The histaminergic-1 and−4 receptors were tested in transfected HEK-293 cells. Ion channel testing for AMPA and N-methyl-D-aspartate (NMDA) was performed in cells from the rat cerebral cortex. […] Non-specific binding was determined in the presence of 1 μM of DCPX. […] The filters were dried and then counted for radioactivity in a scintillation counter (Topcount, Packard) using a scintillation cocktail (Microscint 0, Packard). The results are expressed as a percent inhibition of the control radioligand specific binding: 100-[(measured specific binding)/(control specific binding) × 100]. […]
(§2) We tested the metabolic stability of the compounds with in vitro liver microsome stability assays (Table 1, right). […] We evaluated the compounds for potential toxicity with assays that test for inhibition of off-target ion channels and receptors. […]

nAChR alpha7 = molecular target: T2, nAChR alpha7 (Homo sapiens, UniProt P36544); test: Radioligand binding assay, neuronal α7 nicotinic receptor (transfected SH-SY5Y cells); conditions: antagonist 1 μM
T2 construct: host or cells: SH-SY5Y cells
T2 sequence (P36544 23-502): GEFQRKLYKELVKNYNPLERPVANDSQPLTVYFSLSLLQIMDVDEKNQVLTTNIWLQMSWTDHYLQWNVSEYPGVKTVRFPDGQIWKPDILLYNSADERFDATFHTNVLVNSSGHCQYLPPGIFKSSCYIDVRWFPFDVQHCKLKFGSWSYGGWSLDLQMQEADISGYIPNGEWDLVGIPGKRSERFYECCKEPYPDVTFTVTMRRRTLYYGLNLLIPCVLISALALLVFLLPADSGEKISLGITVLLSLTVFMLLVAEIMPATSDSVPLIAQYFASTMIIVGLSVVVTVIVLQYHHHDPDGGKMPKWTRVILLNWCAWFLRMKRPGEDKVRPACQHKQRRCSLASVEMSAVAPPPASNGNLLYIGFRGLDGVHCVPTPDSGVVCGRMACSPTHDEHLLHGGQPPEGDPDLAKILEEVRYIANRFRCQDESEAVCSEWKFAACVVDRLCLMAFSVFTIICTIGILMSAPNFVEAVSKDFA
Protocol: as §1, §2

H1 histamine GPCR = molecular target: T3, H1 histamine GPCR (Homo sapiens, UniProt P35367); test: Radioligand binding assay, H1 receptor (transfected HEK-293 cells); conditions: antagonist 1 μM
T3 construct: host or cells: HEK-293 cells
T3 sequence (P35367 whole entry): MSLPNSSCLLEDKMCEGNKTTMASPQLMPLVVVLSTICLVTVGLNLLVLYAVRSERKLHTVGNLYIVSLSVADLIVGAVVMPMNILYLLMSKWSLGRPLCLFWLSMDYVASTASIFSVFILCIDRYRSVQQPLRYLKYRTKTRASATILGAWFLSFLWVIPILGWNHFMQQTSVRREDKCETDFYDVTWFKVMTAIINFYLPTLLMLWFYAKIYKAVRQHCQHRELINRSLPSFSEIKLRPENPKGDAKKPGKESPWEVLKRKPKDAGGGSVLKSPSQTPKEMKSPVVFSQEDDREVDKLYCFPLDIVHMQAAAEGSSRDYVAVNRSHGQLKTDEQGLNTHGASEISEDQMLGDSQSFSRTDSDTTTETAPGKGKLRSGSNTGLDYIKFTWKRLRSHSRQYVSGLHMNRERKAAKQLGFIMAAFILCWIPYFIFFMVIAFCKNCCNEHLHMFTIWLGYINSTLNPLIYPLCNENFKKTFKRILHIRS
Protocol: as §1, §2

M5 acetylcholine GPCR = molecular target: T4, M5 acetylcholine GPCR (Homo sapiens, UniProt P08912); test: Radioligand binding assay, M5 receptor (transfected CHO cells); conditions: antagonist 1 μM
T4 construct: host or cells: CHO cells
T4 sequence (P08912 whole entry): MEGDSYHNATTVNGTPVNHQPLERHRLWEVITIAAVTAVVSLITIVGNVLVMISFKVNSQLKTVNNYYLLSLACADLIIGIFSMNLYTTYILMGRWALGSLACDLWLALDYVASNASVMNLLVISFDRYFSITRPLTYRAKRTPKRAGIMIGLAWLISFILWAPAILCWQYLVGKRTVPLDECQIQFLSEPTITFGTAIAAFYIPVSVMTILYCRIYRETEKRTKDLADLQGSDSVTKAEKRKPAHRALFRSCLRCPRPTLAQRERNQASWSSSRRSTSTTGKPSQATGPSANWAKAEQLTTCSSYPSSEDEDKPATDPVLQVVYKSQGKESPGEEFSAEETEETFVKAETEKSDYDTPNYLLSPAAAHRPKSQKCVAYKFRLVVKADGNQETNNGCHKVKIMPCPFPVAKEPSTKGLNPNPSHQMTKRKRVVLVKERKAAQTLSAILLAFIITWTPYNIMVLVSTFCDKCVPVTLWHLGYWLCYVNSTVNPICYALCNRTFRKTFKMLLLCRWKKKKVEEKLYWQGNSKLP
Protocol: as §1, §2

M2 acetylcholine GPCR = molecular target: T5, M2 acetylcholine GPCR (Homo sapiens, UniProt P08172); test: Radioligand binding assay, M2 receptor (transfected CHO cells); conditions: antagonist 1 μM
T5 construct: host or cells: CHO cells
T5 sequence (P08172 whole entry): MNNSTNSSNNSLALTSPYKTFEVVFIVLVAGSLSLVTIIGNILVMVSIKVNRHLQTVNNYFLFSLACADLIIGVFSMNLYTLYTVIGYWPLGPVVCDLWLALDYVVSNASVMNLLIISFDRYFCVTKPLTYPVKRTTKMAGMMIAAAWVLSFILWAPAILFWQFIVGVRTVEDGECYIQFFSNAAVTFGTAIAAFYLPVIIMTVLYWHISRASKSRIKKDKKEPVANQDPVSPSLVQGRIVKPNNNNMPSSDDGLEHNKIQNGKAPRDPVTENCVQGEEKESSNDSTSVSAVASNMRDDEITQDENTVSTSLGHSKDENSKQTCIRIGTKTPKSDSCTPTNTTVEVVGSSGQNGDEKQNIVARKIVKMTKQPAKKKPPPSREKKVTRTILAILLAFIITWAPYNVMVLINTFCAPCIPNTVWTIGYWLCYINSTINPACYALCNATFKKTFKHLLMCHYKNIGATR
Protocol: as §1, §2

M4 acetylcholine GPCR = molecular target: T6, M4 acetylcholine GPCR (Homo sapiens, UniProt P08173); test: Radioligand binding assay, M4 receptor (transfected CHO cells); conditions: antagonist 1 μM
T6 construct: host or cells: CHO cells
T6 sequence (P08173 whole entry): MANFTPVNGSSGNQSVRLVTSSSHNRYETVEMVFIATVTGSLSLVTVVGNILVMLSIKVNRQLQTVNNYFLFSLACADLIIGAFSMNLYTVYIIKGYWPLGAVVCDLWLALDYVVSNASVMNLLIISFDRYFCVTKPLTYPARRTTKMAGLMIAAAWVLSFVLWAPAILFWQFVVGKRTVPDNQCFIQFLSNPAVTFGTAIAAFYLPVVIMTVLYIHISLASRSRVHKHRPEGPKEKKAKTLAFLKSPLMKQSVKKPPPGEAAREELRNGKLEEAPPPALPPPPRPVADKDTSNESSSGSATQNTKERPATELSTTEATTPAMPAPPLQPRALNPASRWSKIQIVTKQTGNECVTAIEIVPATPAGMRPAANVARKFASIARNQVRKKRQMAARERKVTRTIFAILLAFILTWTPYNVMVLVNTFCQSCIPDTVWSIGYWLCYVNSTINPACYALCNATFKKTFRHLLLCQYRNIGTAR
Protocol: as §1, §2

H3 histamine GPCR = molecular target: T7, H3 histamine GPCR (Homo sapiens, UniProt Q9Y5N1); test: Radioligand binding assay, H3 receptor (transfected CHO cells); conditions: antagonist 1 μM
T7 construct: host or cells: CHO cells
T7 sequence (Q9Y5N1 whole entry): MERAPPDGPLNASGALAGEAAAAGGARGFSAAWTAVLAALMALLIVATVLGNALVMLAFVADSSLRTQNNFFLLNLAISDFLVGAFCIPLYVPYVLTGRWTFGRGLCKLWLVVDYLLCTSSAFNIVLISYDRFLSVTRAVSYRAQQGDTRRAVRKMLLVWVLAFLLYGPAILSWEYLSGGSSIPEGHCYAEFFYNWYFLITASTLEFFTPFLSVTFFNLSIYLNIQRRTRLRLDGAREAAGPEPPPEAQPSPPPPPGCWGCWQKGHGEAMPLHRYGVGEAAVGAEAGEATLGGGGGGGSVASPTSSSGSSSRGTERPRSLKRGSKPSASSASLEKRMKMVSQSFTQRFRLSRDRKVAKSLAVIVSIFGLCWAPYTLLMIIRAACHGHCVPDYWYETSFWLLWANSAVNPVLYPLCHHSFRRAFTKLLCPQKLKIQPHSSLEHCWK
Protocol: as §1, §2

[1] = In vitro microsomal stability assay, human; format: in vitro ADME; conditions: pH 7.4; human liver microsomes, 1 μM compound, 37°C; read-out: Half-life (min) Mean (N = 2)
Protocol: The stability of IEM-1460 in the presence of guinea pig liver microsomes (BioIVT, PN: X008070) or IEM-1925 in the presence of human (BioIVT, PN: M00101), mouse, or guinea pig liver microsomes was evaluated (Paraza Pharma, Inc., Montreal, Quebec, Canada). Both IEM-1925 and IEM-1460 were incubated with microsomes at 37°C for a total of 45 min. Working solutions were prepared in 100 mM potassium phosphate buffer and the final reaction was performed at pH 7.4 in 100 mM potassium phosphate buffer containing 0.5 mg/mL liver microsomal protein. Phase I metabolism was assessed by adding NADPH to a final concentration of 1 mM and collecting samples at time points 0, 5, 15, 30, and 45 min. All collected samples were quenched 1:1 with ice-cold stop solution (1 μM labetalol and 1 μM glyburide in acetonitrile) and centrifuged to remove precipitated protein. […] Samples were analyzed by LC-MS/MS using a Thermo Vanquish UPLC and a Thermo Quantis triple quadrupole mass spectrometer. […] Reference compounds were also assessed to ensure accuracy and precision of experimental protocol: imipramine and verapamil for human liver microsomes, diphenhydramine and verapamil for mouse liver microsomes, and warfarin and verapamil for guinea pig liver microsomes. […] Half-life was determined from a plot of the natural logarithm of the peak area ratio (remaining compound peak area/internal standard peak area) against time. […]

T1 sequence (Q9H3N8 whole entry): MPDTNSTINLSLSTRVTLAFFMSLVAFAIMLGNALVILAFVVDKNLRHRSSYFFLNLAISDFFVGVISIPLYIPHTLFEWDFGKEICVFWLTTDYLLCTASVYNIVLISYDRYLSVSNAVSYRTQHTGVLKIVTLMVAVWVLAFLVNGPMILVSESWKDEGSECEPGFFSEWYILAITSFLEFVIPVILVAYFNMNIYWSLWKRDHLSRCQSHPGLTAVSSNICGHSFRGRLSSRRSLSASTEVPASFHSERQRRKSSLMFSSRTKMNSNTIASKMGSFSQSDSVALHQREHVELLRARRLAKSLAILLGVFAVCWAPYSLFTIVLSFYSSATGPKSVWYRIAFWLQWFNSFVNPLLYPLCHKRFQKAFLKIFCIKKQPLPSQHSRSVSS

**Q.** Which “Mean% inhibition (N = 2) of radioligand binding” value (“Mean% inhibition” for short) (H4 histamine GPCR) does the source give for `C[N+](C)(C)CCCCCNCC12CC3CC(CC(C3)C1)C2` [IEM-1460] here?
**A.** <1%

**Q.** What about the “Mean% inhibition” value (nAChR alpha7) of the same compound?
**A.** <1%

**Q.** And the “Mean% inhibition” value (H1 histamine GPCR)?
**A.** <1%

**Q.** And the “Mean% inhibition” value (M5 acetylcholine GPCR)?
**A.** 5.2%

**Q.** And the “Mean% inhibition” value (M2 acetylcholine GPCR)?
**A.** <1%

**Q.** And the “Mean% inhibition” value (M4 acetylcholine GPCR)?
**A.** 37%

**Q.** And the “Mean% inhibition” value (H3 histamine GPCR)?
**A.** <1%

**Q.** And the half-life at 1 μM [1]?
**A.** > 300 min

**Q.** Which results are given for `NCCCCCNC1(c2ccccc2)CCCCC1` [IEM-1925]?
**A.** Mean% inhibition (N = 2) of radioligand binding (H4 histamine GPCR): <5%; Mean% inhibition (N = 2) of radioligand binding (nAChR alpha7): <2%; Mean% inhibition (N = 2) of radioligand binding (H1 histamine GPCR): <1%; Mean% inhibition (N = 2) of radioligand binding (M5 acetylcholine GPCR): <5%; Mean% inhibition (N = 2) of radioligand binding (M2 acetylcholine GPCR): <1%; Mean% inhibition (N = 2) of radioligand binding (M4 acetylcholine GPCR): 19%; Mean% inhibition (N = 2) of radioligand binding (H3 histamine GPCR): <5%; half-life at 1 μM [1]: > 300 min
